Assay results published in ChEMBL document CHEMBL1201862, “PubChem BioAssay data set” (2004).
Active and inactive are the calls of the source.

Assays:
[1] = target: Short transient receptor potential channel 6 (Mus musculus, UniProt Q61143); experiment: mouse TRPC6 channel blockers, concentration series – HEK293 cells, membrane potential dye, IC50, selectivity assay for selective TRPC4 inhibitor project, dose response (AID 492987); type: functional, cell-based
CHO = CHO cell viability loss, potency – luminescence, cytotoxicity control for TLR9-MyD88 binding inhibitor project, dose response (AID 588339); type: functional, cell-based, hamster; settings: Cricetulus griseus;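 also: CHO cells stably coexpressing TLR9 and MyD88 fusions from primary screen; compound exposure lasted 48 hours before viability readout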
[2] = target: Tyrosyl-DNA phosphodiesterase 2 (Homo sapiens, UniProt O95551); experiment: potency against TDP2 phosphodiesterase activity – biochemical, epi absorbance, IC50, dose response (AID 743297)
[3] = target: Dual specificity tyrosine-phosphorylation-regulated kinase 1A (Rattus norvegicus, UniProt Q63470); type: biochemical, Homo sapiens
[4] = target: Induced myeloid leukemia cell differentiation protein Mcl-1 (Homo sapiens, UniProt Q07820); type: functional
[5] = target: Dual specificity protein kinase CLK1 (Homo sapiens, UniProt P49759); experiment: inhibition of human CLK1 activity – biochemical, cherry-picked samples, selectivity assay for Dyrk1A inhibitor project, dose response (AID 588811)
[6] = Luminescence Cell-Based Dose Response HTS to Identify Inhibitors of 5'UTR Stem-Loop Driven Prion Protein mRNA Translation in H4 Neuroglioblastoma Cells. [Related pubchem assays: 1827 (Project Summary), 1813 (Primary HTS)]; type: functional
[7] = luciferase reporter signal suppression in cells – H4 neuroglioma cells, luminescence, dose response (AID 1990); type: functional, cell-based
Hexokinase-1 = target: T1, Hexokinase-1 (Homo sapiens, UniProt P19367); experiment: hexokinase 1 activity inhibitors, potency – biochemical, set 2, resazurin fluorescence coupled readout, selectivity assay for HKDC1 inhibitor project, SAR follow-up (AID 588356); type: functional
T1 sequence (P19367 whole entry): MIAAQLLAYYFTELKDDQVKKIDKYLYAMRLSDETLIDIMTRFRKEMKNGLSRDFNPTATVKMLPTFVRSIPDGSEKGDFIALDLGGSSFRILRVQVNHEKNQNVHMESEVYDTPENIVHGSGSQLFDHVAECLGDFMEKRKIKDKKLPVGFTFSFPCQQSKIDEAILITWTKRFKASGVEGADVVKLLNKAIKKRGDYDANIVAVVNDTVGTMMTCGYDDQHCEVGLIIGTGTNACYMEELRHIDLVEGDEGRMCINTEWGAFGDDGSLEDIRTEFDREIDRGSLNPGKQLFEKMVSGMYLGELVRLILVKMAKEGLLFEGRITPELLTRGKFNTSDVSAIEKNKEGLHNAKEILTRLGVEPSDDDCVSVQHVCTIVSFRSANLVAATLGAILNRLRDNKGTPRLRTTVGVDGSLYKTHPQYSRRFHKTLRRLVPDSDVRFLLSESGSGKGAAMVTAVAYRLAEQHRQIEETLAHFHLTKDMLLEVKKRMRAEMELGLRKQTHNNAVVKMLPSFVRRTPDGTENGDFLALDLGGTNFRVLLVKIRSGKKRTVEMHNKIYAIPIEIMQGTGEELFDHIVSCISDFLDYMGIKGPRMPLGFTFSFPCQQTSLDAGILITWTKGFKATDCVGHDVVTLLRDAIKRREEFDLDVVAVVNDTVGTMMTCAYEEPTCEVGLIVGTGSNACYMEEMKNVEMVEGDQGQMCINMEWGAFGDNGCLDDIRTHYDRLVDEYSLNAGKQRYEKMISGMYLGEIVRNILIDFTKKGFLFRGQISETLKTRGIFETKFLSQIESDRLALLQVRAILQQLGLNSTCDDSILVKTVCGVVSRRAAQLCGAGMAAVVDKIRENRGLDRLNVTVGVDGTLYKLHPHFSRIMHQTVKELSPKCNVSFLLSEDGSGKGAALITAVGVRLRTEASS

Hexokinase HKDC1 = target: T2, Hexokinase HKDC1 (Homo sapiens, UniProt Q2TB90); experiment: analog inhibition of human HKDC1 activity – biochemical, set 2, SAR follow-up (AID 588355); type: functional
T2 sequence (Q2TB90 whole entry): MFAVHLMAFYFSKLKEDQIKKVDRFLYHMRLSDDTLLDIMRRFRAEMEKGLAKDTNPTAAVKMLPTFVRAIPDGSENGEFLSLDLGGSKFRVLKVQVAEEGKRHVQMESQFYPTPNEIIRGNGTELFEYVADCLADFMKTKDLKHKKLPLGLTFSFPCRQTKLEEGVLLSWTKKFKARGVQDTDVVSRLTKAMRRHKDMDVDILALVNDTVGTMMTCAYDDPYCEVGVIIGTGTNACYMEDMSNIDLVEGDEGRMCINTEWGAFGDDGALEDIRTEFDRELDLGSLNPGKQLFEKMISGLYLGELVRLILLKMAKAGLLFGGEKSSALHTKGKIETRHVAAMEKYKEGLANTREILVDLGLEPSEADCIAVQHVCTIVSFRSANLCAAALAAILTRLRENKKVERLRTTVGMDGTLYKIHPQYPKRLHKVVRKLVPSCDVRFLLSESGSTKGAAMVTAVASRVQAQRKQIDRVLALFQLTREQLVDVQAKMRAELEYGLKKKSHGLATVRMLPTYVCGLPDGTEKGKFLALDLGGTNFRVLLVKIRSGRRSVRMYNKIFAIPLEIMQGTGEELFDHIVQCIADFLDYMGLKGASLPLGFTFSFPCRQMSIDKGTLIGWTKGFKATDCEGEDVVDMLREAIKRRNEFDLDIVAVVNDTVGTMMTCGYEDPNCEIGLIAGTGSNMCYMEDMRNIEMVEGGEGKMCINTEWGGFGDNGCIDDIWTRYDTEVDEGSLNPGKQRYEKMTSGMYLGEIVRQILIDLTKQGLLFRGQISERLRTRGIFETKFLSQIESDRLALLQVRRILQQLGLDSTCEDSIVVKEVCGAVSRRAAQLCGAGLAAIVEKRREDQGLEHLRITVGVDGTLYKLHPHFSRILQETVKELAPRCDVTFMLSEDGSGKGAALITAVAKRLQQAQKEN

[8] = Luminescence Cell-Based Dose Confirmation HTS to Identify Inhibitors of Platelet Dense Granule Release. [Related pubchem assays: 1663 (Primary HTS), 1678 (Summary of Project)]; type: functional
[9] = target: Luciferin 4-monooxygenase (Photinus pyralis, UniProt P08659); experiment: inhibition of purified Photinus pyralis luciferase – biochemical, luminescence, dose response (AID 1891)
[10] = non-specific 3'UTR reporter inhibition in Clone20-Shn3RL – cell-based, Renilla luciferase, cherry-picked, counter-screen for Shn3 inhibitor project, dose response (AID 624133); type: functional
[11] = loss of viability in HepG2 cells – cell-based, CellTiter-Glo, cherry-picked, cytotoxicity control for Shn3 inhibitor project, dose response (AID 624134); type: functional
Cysteine protease ATG4B = Cysteine protease ATG4B (Homo sapiens, UniProt Q9Y4P1); type: functional;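 also: Fluorescence-based dose-response confirmation assay measuring inhibition of ATG4B activity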
[12] = reduction of Shn3 3'UTR-driven luciferase in osteoblasts – cell-based, Clone20 osteoblasts, firefly luciferase, cherry-picked, dose response (AID 624132); type: functional;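 also: firefly luciferase luminescence from reporter carrying the Shn3 3'UTR in osteoblasts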
[13] = NIH-3T3 fibroblast cytotoxicity, dose response, cytotoxicity control, cell-based, fluorescence, Alamar Blue, secondary assay (AID 2327); type: functional;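 also: NIH-3T3 mouse fibroblasts cultured with fluconazole at 8 µg/mL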
[14] = fluconazole-exposed Candida albicans growth modulators – fluorescence, retest, confirmation (AID 2467); type: functional, cell-based
[15] = target: T3, Ubiquitin-conjugating enzyme E2 N (Homo sapiens, UniProt P61088); type: functional;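 also: Dose-response confirmation in a TR-FRET assay detecting UBC13-driven polyubiquitin chain formation, inhibition measured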
T3 sequence (P61088 whole entry): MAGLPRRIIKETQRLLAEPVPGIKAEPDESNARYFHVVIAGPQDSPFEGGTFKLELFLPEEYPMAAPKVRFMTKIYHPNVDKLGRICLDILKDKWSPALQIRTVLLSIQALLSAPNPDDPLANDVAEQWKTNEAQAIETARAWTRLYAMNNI

Phospholipase A2 = Phospholipase A2 (Homo sapiens, UniProt P04054); type: functional;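 also: confirmatory dose-response counterscreen on phospholipase A2, testing hits that came from an ultra-high-throughput screen for ATG4B inhibitors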
HEK293 = experiment: HEK293T cell viability loss, resazurin readout – resazurin fluorescence, cytotoxicity control for NF-kB activator project, SAR follow-up (AID 493251); type: functional, cell-based; settings: Homo sapiens
[16] = HEK-293T cell viability reduction – luminescence, B-cell screen hits, cytotoxicity control for BCR NF-kB inhibitor project, dose response (AID 489021); type: functional, cell-based;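 also: HEK-293T cells carrying an NF-kB luciferase reporter; cells exposed to compound for about 14 hours before viability readout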
Cytochrome P450 3A4 = Cytochrome P450 3A4 (Homo sapiens, UniProt P08684);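 also: CYP3A4 tested as one member of a cytochrome P450 panel screen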
Cytochrome P450 2D6 = Cytochrome P450 2D6 (Homo sapiens, UniProt P10635);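 also: CYP2D6 member of a cytochrome P450 panel assay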
[17] = target: Voltage-gated inwardly rectifying potassium channel KCNH2 (Homo sapiens, UniProt Q12809); settings: Potency;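 also: confirmatory quantitative high-throughput screen measuring inhibition of hERG channel activity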
[18] = general cell-killing toxicity readout – plate reader, dry powder samples, cytotoxicity control for PAX8 inhibitor project, dose response (AID 743021); type: functional, cell-based
A-375 = experiment: proliferation inhibition in MITF-low A375 cells – cell-based, cherry-pick samples, set 2, counter-screen for MITF modulator project, dose response (AID 540335); type: functional; settings: Homo sapiens
Paired box protein Pax-8 = Paired box protein Pax-8 (Homo sapiens, UniProt Q06710); experiment: PAX8 transcriptional activity inhibition in RMG-I – RMG-I cells, luciferase, cherry-pick, dose response (AID 687027); type: functional, cell-based;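 also: luciferase reporter driven by Pax8 target thyroperoxidase promoter measured by SteadyGlo luminescence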
INS1 = experiment: INS-1E survival protection against cytokine death – cell-based, luminescence, retest, dose response (AID 449756); type: functional; settings: Rattus norvegicus;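 also: cell death triggered by IL-1 beta plus TNF-alpha plus IFN-gamma mixture; protective hits raise ATP signal compared with cytokine alone wells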
[19] = target: T4, Heat shock factor protein 1 (Mus musculus, UniProt P38532); experiment: decrease of HSF1-responsive luciferase luminescence – cell-based, NIH3T3, dose retest, confirmation (AID 2382); type: functional;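 also: NIH3T3 fibroblasts with HSF1-driven luciferase reporter stressed by proteasome inhibitor MG132; luminescence from HSF1-driven luciferase expression after 8 hours of MG132 stress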
T4 sequence (P38532 whole entry): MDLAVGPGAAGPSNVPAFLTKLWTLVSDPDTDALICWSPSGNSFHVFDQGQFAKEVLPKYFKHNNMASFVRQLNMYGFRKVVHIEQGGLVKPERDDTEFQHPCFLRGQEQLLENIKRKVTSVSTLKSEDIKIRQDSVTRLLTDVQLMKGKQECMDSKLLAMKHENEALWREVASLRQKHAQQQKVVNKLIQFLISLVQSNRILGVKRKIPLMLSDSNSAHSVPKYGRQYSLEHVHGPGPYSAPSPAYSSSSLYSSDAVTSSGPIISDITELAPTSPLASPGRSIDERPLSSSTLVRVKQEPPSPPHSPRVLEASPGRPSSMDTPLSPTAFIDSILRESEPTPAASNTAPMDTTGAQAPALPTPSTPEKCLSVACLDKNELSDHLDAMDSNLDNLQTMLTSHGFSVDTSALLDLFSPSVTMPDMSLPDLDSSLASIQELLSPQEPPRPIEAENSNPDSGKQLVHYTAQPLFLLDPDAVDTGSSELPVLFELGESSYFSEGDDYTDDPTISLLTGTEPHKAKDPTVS

[20] = target: T5, Microphthalmia-associated transcription factor (Homo sapiens, UniProt O75030); experiment: reducers of TRPM1 reporter luminescence, concentration series – cell-based, SK-MEL-5, cherry-picked, set 3, MITF inhibitor project, dose response (AID 493073); type: functional;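 also: SK-MEL-5 melanoma cells with luciferase driven by the MITF target TRPM1 promoter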
T5 sequence (O75030 whole entry): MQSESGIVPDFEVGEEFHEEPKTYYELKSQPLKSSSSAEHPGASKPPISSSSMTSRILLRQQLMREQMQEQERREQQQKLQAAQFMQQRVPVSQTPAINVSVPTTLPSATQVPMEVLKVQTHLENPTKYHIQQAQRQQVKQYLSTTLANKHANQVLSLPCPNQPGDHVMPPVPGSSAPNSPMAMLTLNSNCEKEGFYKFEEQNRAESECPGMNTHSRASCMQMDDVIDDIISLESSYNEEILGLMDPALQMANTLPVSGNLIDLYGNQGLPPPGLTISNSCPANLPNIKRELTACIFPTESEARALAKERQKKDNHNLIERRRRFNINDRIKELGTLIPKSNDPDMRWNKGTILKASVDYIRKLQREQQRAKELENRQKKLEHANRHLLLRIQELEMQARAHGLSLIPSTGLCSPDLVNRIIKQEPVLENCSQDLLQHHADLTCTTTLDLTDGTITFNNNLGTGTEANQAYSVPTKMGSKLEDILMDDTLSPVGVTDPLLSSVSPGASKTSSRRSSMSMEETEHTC

Cysteine protease ATG4B, sequence (Q9Y4P1 whole entry): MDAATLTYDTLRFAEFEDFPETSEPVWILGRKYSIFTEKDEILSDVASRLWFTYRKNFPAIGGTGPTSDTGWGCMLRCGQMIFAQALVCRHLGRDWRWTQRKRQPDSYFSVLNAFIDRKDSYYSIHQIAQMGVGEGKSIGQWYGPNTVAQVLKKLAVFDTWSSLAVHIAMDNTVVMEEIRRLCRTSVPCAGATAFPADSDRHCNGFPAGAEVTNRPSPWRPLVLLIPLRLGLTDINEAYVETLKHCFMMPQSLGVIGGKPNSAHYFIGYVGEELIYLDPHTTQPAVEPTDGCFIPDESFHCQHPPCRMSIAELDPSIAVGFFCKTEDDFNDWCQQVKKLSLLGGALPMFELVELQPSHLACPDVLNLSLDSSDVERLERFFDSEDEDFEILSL
Dual specificity protein kinase CLK1, sequence (P49759 whole entry): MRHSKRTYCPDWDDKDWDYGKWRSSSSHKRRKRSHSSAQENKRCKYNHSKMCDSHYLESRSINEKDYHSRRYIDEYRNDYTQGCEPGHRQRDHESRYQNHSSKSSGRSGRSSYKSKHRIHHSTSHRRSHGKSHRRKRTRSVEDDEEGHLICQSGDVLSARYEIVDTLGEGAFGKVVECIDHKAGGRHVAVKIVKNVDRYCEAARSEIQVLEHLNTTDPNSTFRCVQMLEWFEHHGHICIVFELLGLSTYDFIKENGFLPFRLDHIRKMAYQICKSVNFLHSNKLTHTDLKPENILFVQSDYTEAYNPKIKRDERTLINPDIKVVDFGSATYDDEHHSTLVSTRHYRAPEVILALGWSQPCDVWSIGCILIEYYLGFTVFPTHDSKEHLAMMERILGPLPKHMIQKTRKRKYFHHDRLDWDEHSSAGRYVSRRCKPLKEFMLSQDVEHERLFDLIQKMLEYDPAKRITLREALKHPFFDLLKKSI
Paired box protein Pax-8, sequence (Q06710 whole entry): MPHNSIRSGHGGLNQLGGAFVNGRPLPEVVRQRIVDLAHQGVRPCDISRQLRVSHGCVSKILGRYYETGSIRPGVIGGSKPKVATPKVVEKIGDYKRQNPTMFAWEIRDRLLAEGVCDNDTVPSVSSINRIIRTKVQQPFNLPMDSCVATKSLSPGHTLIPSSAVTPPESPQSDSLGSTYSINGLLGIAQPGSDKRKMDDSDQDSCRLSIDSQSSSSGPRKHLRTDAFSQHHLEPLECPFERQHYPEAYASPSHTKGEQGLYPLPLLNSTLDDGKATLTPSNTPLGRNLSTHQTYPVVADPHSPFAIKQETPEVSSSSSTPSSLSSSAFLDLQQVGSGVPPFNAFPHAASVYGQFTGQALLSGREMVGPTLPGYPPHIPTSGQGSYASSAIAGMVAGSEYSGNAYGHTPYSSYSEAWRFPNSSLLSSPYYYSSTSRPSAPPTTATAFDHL
Voltage-gated inwardly rectifying potassium channel KCNH2, sequence (Q12809 whole entry): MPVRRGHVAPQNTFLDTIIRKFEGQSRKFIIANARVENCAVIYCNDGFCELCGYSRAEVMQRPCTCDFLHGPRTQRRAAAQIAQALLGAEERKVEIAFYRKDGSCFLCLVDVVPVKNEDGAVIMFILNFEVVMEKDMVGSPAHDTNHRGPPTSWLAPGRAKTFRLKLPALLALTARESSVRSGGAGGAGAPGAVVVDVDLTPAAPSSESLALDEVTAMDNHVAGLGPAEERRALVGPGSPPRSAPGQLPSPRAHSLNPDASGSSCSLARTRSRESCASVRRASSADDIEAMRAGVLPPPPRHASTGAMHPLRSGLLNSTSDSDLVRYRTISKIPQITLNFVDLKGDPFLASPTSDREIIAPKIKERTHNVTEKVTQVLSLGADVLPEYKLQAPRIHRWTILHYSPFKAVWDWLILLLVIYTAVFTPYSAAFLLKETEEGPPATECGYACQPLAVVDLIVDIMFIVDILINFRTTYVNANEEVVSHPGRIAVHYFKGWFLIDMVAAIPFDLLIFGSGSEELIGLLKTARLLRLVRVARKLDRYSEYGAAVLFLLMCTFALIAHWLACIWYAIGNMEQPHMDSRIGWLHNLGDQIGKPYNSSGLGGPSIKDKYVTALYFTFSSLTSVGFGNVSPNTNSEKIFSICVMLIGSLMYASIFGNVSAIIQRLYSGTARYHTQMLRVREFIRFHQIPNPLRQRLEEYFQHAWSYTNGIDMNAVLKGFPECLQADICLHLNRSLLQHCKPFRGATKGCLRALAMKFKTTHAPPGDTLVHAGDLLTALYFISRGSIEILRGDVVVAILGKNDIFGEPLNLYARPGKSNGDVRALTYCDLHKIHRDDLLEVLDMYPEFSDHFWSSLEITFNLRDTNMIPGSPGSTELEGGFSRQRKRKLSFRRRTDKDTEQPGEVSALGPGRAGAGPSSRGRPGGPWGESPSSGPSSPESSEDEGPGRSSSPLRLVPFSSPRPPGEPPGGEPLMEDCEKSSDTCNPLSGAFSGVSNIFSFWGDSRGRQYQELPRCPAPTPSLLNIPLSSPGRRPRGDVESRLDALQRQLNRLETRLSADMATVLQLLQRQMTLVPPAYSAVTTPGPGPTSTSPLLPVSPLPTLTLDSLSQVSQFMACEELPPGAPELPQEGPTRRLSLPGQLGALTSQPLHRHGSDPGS
Short transient receptor potential channel 6, sequence (Q61143 whole entry, the tested form may be a part): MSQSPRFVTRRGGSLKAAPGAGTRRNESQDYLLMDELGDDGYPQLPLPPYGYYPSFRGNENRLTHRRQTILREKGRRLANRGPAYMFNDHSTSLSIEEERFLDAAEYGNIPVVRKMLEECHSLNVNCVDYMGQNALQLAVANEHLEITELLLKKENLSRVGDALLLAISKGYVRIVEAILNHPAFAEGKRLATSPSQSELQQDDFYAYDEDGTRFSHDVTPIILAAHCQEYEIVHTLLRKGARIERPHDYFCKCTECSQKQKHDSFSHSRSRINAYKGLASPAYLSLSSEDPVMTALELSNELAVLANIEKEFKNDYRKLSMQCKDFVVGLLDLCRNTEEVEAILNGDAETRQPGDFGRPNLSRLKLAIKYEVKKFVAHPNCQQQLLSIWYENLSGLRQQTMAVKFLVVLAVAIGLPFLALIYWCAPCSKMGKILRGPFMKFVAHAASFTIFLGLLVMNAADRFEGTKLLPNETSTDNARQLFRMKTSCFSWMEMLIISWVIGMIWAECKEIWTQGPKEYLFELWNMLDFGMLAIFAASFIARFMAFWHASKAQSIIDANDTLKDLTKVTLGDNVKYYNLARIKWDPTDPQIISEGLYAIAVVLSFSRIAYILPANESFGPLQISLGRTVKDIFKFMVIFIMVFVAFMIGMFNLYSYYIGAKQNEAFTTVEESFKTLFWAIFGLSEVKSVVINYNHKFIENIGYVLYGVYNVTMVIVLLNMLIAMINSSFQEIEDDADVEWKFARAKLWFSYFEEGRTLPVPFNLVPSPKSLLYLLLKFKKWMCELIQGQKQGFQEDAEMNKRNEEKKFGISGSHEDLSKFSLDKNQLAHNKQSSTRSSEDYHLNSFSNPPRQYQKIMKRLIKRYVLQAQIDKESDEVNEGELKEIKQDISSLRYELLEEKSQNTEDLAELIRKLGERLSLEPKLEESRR
Cytochrome P450 2D6, sequence (P10635 whole entry): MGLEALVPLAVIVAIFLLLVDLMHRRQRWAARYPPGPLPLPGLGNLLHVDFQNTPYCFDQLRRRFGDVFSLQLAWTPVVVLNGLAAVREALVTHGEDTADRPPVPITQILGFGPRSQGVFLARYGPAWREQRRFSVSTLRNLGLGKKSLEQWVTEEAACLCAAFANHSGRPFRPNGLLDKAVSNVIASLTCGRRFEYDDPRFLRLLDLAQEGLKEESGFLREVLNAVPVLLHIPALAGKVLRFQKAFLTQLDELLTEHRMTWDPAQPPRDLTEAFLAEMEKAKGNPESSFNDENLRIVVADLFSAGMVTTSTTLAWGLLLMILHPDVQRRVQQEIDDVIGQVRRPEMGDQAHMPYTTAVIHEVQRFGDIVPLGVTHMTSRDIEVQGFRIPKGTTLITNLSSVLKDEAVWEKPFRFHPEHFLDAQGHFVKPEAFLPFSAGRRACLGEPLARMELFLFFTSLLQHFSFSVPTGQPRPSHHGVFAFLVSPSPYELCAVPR
Luciferin 4-monooxygenase, sequence (P08659 whole entry): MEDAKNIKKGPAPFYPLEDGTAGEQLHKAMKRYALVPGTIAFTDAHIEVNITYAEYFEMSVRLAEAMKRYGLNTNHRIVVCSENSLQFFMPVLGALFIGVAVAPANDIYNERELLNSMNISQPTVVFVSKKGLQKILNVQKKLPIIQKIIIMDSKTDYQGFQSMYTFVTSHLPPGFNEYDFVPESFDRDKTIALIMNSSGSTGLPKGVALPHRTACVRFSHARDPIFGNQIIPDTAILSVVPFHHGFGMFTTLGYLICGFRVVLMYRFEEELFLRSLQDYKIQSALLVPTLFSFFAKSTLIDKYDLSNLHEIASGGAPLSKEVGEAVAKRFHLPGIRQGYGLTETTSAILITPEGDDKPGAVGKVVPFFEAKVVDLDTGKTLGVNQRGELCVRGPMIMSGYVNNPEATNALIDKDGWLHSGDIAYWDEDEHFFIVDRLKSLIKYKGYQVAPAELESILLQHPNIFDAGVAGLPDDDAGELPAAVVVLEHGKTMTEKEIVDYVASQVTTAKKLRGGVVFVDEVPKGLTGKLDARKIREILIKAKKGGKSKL
Cytochrome P450 3A4, sequence (P08684 whole entry): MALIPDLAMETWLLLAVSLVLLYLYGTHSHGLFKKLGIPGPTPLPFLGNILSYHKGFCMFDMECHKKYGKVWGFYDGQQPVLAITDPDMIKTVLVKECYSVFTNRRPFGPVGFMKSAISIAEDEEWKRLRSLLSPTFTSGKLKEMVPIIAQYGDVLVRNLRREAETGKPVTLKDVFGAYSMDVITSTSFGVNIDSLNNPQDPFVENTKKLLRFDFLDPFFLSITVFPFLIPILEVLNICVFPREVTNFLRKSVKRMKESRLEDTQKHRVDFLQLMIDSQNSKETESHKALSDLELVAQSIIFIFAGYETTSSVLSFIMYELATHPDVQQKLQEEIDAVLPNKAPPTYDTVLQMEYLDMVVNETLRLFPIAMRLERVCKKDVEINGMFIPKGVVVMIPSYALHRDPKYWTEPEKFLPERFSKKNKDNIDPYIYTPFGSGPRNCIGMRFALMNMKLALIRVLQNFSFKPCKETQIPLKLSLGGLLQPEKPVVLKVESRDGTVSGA

Cc1cc(N2CCNCC2)nc2ccccc12
IC50 [1]: 20.4 µM (active)

N#Cc1sc2nc(-c3ccccc3)cc(-c3ccco3)c2c1N
IC50 (CHO): 40.7 µM (inactive)
IC50 [2]: > 128 µM (inactive)

O=C(Nc1nc(-c2ccncc2)cs1)c1ccco1
AC50 [3]: 1.92 µM (active)
IC50 [4]: 4.34 µM (active)
AC50 [5]: 2.56 µM (active)

COc1cc2c(cc1OC)-c1cc(Nc3ccccc3Br)nc(=O)n1CC2
EC50 [6]: 13.4 µM (active)
EC50 [7]: 26.2 µM (active)
IC50 (Hexokinase-1): > 80 µM (inactive)
IC50 (Hexokinase HKDC1): > 80 µM (inactive)
EC50 [8]: 0.115 µM (active)
EC50 [9]: > 112 µM (not active)

Cc1c(CCOC(=O)C23CC4(C)CC(C)(CC(C)(C4)C2)C3)sc[n+]1CC(=O)c1ccccc1
AC50 [10]: 7.21 µM (active)
AC50 [11]: 23.6 µM (active)
IC50 (Cysteine protease ATG4B): 8.57 µM (active)
AC50 [12]: 5.84 µM (active)
EC50 [13]: > 150 µM (inactive)
EC50 [14]: > 38 µM (not active)
IC50 [15]: > 20 µM (inactive)
IC50 (Phospholipase A2): 8.77 µM (active)

COc1ccc(-c2nc(CSCC(=O)NCc3ccco3)c(C)o2)cc1
IC50 (HEK293): 67.1 µM (inactive)
IC50 [16]: > 80 µM (inactive)

NC(=O)CNCCC(c1ccccc1)c1ccccc1
AC50 (Cytochrome P450 3A4): 2 µM (inconclusive)
AC50 (Cytochrome P450 2D6): 20 µM (inconclusive)
AC50 [17]: 15.8 µM (inconclusive)

O=C(CCl)N(c1ccccc1)C1CCCCC1
AC50 [18]: 10.7 µM (active)
AC50 (A-375): 7.54 µM (active)
AC50 (Paired box protein Pax-8): 3.98 µM (active)
AC50 (INS1): 4.88 µM (active)
EC50 [19]: 4.98 µM (active)
AC50 [20]: 4.51 µM (active)
